Read-outs that look alike come from different tables or passages of the source.
Tests used:
[1] = tested on: monoclonal F12-3C8 antibody (anti-petroleum); assay: Cross-reactivity of immunoassay relative to m-xylene; type: binding, mouse (Balb/c); conditions: for ED50: calculated from a dose response curve
Description: (§1) Female Balb/c mice received a primary subcutaneous immunization with 50 ug of xylene derivatized to bovine serum albumin in adjuvant (MPL+TDM Emulsion, RIBI Immunochem Research, Inc., Hamilton, Mont.). Subcutaneous secondary injections (25 ug) were given at day 21, 35, and then monthly. The production of monoclonal antibodies was performed according to conventional procedures (see Milstein, Cancer, 49:1953-1957 (1982)). Hybridoma cultures producing monoclonal antibodies recognizing free hapten by EIA were cloned by limiting dilution.
(§2) Antibody coated tubes were prepared by passively coating polystyrene (12×75 mm, NUNC) tubes with the monoclonal F12-3C8 antibody diluted in PBS and incubating overnight.
(§3) 10 g of a soil sample were placed in an extraction vial containing 20 mL of methanol and 5 steel pellets (6 mm) and the vial and its contents shaken for 1 minute to disperse the soil particles and extract the petroleum hydrocarbons. The sample was then filtered to clarify the sample using a filter of glass fiber and 0.45μTeflon. 45 uL of the clarified filtrate sample was mixed with 955 μl of 10 mM PBS (pH=7.4) and the resulting mixture added to lyophilized enzyme conjugate reagent (0.3 μg) and mixed. At the same time, 2×45 uL of the xylene standard are similarly treated. The sample and the two standards were then poured into three identical antibody coated tubes, respectively, and the resulting solution mixed. The resulting solution was incubated for 10 minutes at ambient temperature and then washed 4× with a wash buffer (detergent-saline solution). 250 uL of tetramethylbenzidene solution (KP Laboratories, Cat. No. 50-76-02) was added along with 250 uL of hydrogen peroxide solution (KPL, Cat. No. 50-65-02) and the resultant solution mixed. After incubating for 2.5 minutes the color development reaction was stopped with 250 uL of stop solution (1M sulfuric acid).
The ED50 value was calculated from a dose response curve.
Percent CrossReactivity = ((mXylene ED50 /Compound ED50) .times

[2] = tested on: monoclonal F12-3C8 antibody (anti-petroleum); assay: Cross-reactivity of immunoassay: concentration needed to provide a positive result; type: binding, mouse (Balb/c); conditions: test compounds dissolved in methanol
Description: as §1, with “dilution. Clone F12-3C8 was selected based upon specificity, and interference criteria.” for “dilution.”
as §2, §3
Cross-reactivity of the immunoassay of the present
invention. The test compounds were dissolved in
methanol and assayed. The values listed are the
concentration of compound needed to provide a […]

[3] = (m-Xylene ED50 / Compound ED50) x 100, m-xylene = 100%

Which results are given for CC(C)CC(C)(C)C [2,2,4-Trimethylpentane]?
% Cross-Reactivity [1, 3]: < 1%; ED50 [1]: Negative

Which “% Cross-Reactivity” value [1, 3] does the source give for CCCCC(C)C [2-Methylhexane] here?
Its value is 43%.

And the ED50 ([1]; 10 min)?
The ED50 was 1,113 ppb.

What does the source list for CCCC(C)C [2-Methylpentane]?
% Cross-Reactivity [1, 3]: 57%; ED50 ([1]; 10 min): 851 ppb

What does the source list for c1cc2c3c(cccc3c1)CC2 [Acenaphthene]?
% Cross-Reactivity [1, 3]: 5,378%; ED50 ([1]; 10 min): 9 ppb; Conc. where positive [2]: 2.5 ppm

c1ccccc1 [Benzene] was tested. Which “% Cross-Reactivity” value [1] did it give?
The value was less than 1%.

What about the Conc. where positive [2] of the same compound?
Its Conc. where positive is > 10,000 ppm.

Which results are given for C1CCCCC1 [Cyclohexane]?
% Cross-Reactivity [1, 3]: 7%; ED50 ([1]; 10 min): 6,636 ppb

Which “% Cross-Reactivity” value [1] does the source give for CCc1ccccc1 [Ethylbenzene] here?
Its value is 275%.

What about the ED50 ([1]; 10 min) of the same compound?
Its ED50 is 176 ppb.

With CCCCCCC [Heptane] as the compound, how does the Conc. where positive [2] read?
Its Conc. where positive is 300 ppm.

With CCCCCC [Hexane] as the compound, how does the Conc. where positive [2] read?
The Conc. where positive was 300 ppm.

With CC(C)CC(C)(C)C [Isooctane] as the compound, how does the Conc. where positive [2] read?
The Conc. where positive was 100 ppm.

For c1ccc2ccccc2c1 [Naphthalene], which “% Cross-Reactivity” value [1, 3] is on record?
Its value is 4,390%.

What about the ED50 ([1]; 10 min) of the same compound?
Its ED50 is 11 ppb.

And the Conc. where positive [2]?
The Conc. where positive was 2.5 ppm.

Which “% Cross-Reactivity” value [1, 3] does the source give for c1ccc2c(c1)ccc1ccccc12 [Phenanthrene] here?
Its value is 848%.

What about the ED50 ([1]; 10 min) of the same compound?
Its ED50 is 57 ppb.

And the Conc. where positive [2]?
The Conc. where positive was 10 ppm.

How did the “% Cross-Reactivity” value [1, 3] turn out when Cc1ccccc1 [Toluene] was run?
The value was 22%.

And the ED50 ([1]; 10 min)?
Its ED50 is 2,210 ppb.

What about the Conc. where positive [2] of the same compound?
Its Conc. where positive is 300 ppm.

Which Conc. where positive [2] does the source give for CCCCCCCCCCC [Undecane] here?
The Conc. where positive was > 10,000 ppm.

With Cc1cccc(C)c1 [m-Xylene, reference compound] as the compound, how does the “% Cross-Reactivity” value [1, 3] read?
Its value is 100%.

What about the ED50 ([1]; 10 min) of the same compound?
The ED50 was 483 ppb.

Which “% Cross-Reactivity” value [1, 3] does the source give for CCCCCCC [n-Heptane] here?
The value was 30%.

And the ED50 ([1]; 10 min)?
Its ED50 is 1,669 ppb.

Which “% Cross-Reactivity” value [1, 3] does the source give for CCCCCCCCC [n-Nonane] here?
Its value is less than 1%.

What about the ED50 [1] of the same compound?
Its ED50 is “Negative”.

What does the source list for CCCCCCCC [n-Octane]?
% Cross-Reactivity [1, 3]: 11%; ED50 ([1]; 10 min): 4,589 ppb

What does the source list for CCCCCCCCCCCCCC [n-Tetradecane]?
% Cross-Reactivity [1, 3]: < 1%; ED50 [1]: Negative

What does the source list for CCCCCCCCCCCCC [n-Tridecane]?
% Cross-Reactivity [1, 3]: < 1%; ED50 [1]: Negative

How did the “% Cross-Reactivity” value [1, 3] turn out when CCCCCCCCCCC [n-Undecane] was run?
The value was less than 1%.

And the ED50 [1]?
Its ED50 is “Negative”.

For Cc1ccccc1C [o-Xylene], which “% Cross-Reactivity” value [1, 3] is on record?
Its value is 271%.

What about the ED50 ([1]; 10 min) of the same compound?
Its ED50 is 178 ppb.

How did the “% Cross-Reactivity” value [1, 3] turn out when Cc1ccc(C)cc1 [p-Xylene] was run?
Its value is 38%.

And the ED50 ([1]; 10 min)?
The ED50 was 1,255 ppb.

Which results are given for Methylnaphthalene?
% Cross-Reactivity [1, 3]: 780%; ED50 ([1]; 10 min): 62 ppb; Conc. where positive [2]: 10 ppm

How did the Conc. where positive [2] turn out when Xylene was run?
The Conc. where positive was 100 ppm.
